Results on one molecule are retold here after patent US20220127337A1 (priority 2020, published 2022).

Assay [1] has as its system CoV-2 ORF3a-mediated activation of caspase 1. It is filed as cell-based, human.
In assay [2] the test system is SARS-CoV. To be noted: Lu W et al. Proc Natl Acad Sci USA 103, 12540-12545 (2006); cited from earlier work.

`[Ba+2]` [barium]: the “CoV-2 ORF3a-mediated activation of caspase 1” value in assay [1] is “able to curb CoV-2 ORF3a-mediated activation of caspase 1”. In addition, the “release of SARS-CoV virions” value in assay [2] is listed as “block the release of SARS-CoV virions”.
